This note sets out measurements from PMC11435156, “Exploring Quinazoline Nitro-Derivatives as Potential Antichagasic Agents: Synthesis and In Vitro Evaluation” (Molecules, 2024).

For data set [1], the system named is T. cruzi Queretaro strain epimastigotes. The data set is described as follows: Growth of epimastigotes cultured in vitro (motile parasites counted, relative growth). It counts as cell-based, Trypanosoma cruzi. The conditions noted are these: for S.I. LD50/ED50: HFF1 LD50 / epimastigote ED50; for IC50: Trypanosoma cruzi, read-out: Epi ED50; for antiparasitic effect, summary in words: epimastigotes and trypomastigotes, summary of Table 2; for Epi ED50 (initial screening): initial screening done in 5 mL culture. The protocol:
Epimastigotes were grown at 28 °C.
Epimastigotes were grown in LIT medium at the exponential phase and aliquots of 1 × 10^5 parasites were dispensed in 200 µL/well in a 96-well culture plate (Corning; NY, USA). […] Control samples without the compounds were supplemented with the maximum amount of vehicle used. […] Afterwards, the number of mobile epimastigotes (motility as parameter of viability) was counted in a Neubauer chamber. Relative growth is the difference of the final density of parasites after 24 h of treatment with the compound minus the density of parasites at time 0 of exposure; these differences were further normalized to the relative growth of the culture without compound. Plots of the percentage of relative growth against compound concentration were built and data adjusted to dose–response equation with the Origin Pro software (Origin Pro version 8.0) to calculate the concentration at which the variable is decreased by 50%.

Data set [2] concerns HFF1 human foreskin fibroblasts. In words: Viability of human foreskin fibroblasts (trypan blue exclusion). The settings on record: for HFF1 LD50: human. How it is done:
To evaluate the effect on cell viability, HFF1 cells cultured and washed as above were dispensed in a 96 well plate to a concentration of 1 × 10^4 cells/well in 0.2 mL and incubated for 24 h at 37 °C for adherence. […] To determine viability, cells were detached by trypsinization and then collected, and viability was determined by trypan blue exclusion.

In data set [3] the test system is T. cruzi Queretaro strain trypomastigotes. The data set is described as follows: Viability of trypomastigotes (motility as parameter of viability). It counts as cell-based. The settings on record: Trypanosoma cruzi, read-out: Trypo LD50. How it is done: For the primary infection, 20,000 HFF1 cells/mL were inoculated in 5 mL DMEM supplemented with 10% FBS in a 175 cm^2 flask (Corning; Corning, NY, USA;) and cultivated at 37 °C and 5% CO2 for 24 h for adherence. Afterwards, the medium was changed to DMEM supplemented with 2% FBS and the cells were infected with 10 × 10^6 epimastigotes previously collected and washed with 10 mL DMEM without FBS. The cells were incubated for 48 h at 37 °C and 5% CO2 and later washed every 24 h with DMEM with 2%FBS until trypomastigotes liberation (5–7 days post infection).
For the secondary infection, LLC-MK2 cells (epithelial cells from the kidney of an adult monkey) were infected in a similar fashion to the primary infection, but using 1 × 10^6 trypomastigotes obtained from the primary infection. The released trypomastigotes were used immediately for drug treatment.
The number of mobile trypomastigotes (motility as parameter of viability) was determined using a Neubauer chamber. Data were processed as above.

[4] abbreviates: 120 h, epimastigote growth, 5 days, single initial pulse of compound.
Setting [5] is: epimastigote relative growth, 24 h treatment, 96-well plate.
Setting [6] is: trypomastigote viability, 3 h treatment.

Structures are written as SMILES. Read-outs that look alike come from different tables or passages of the source. Marks after values point to notes of the source that are not given here.

With `O=C(Cn1ccnc1[N+](=O)[O-])NCc1ccccc1` [Bnz, N-benzyl-2-(2-nitroimidazol-1-yl) acetamide, reference compound], the entries for the “S.I. LD50/ED50” value in data set [1] (24 h) and in data set [1] (5 days) were 18 and 7, respectively. Moreover, the results for the IC50 in data set [1] (setting [4]) and in data set [1] (setting [5]) were 17 ± 10 µM and 9.4 ± 1.3 µM, respectively. Besides, the “cytotoxicity on HFF1” value in data set [2] (5 days) is given as “high cytotoxicity”. In data set [2] (HFF1, 24 h treatment), the “concentration at which cytotoxicity started to show” value is on record as more than 50 µM. Besides, the “HFF1 LD50” value in data set [2] (24 h) was 165 ± 27 (3) µM; in data set [2] (5 days) it was 118 ± 14 (3) µM. The LC50 in data set [3] (setting [6]) amounted to 183 µM.

For the molecule `Nc1nc(N)c2cc(NC(=O)c3ccccc3)ccc2n1` [Compound 1, N-(2,4-Diaminequinazolin-6-yl)benzamide], the IC50 in data set [1] (setting [4]) and in data set [1] (setting [5]) was more than 100 µM in each case. Also, the “antiparasitic effect, summary in words” value in data set [1] was “did not showed an effect in parasites nor in cells”. Also, the “cytotoxicity on HFF1” value in data set [2] (24 h treatment) is reported as “did not show either cytotoxicity or parasiticidal effects”. Moreover, the figures for the “HFF1 LD50” value in data set [2] (24 h) and in data set [2] (5 days) were >100 (6) µM and >100 (2) µM, respectively. In addition, the LC50 in data set [3] (3 h) was more than 150 µM.

`Nc1nc(N)c2cc(NC(=O)c3ccccc3[N+](=O)[O-])ccc2n1` [Compound 2, N-(2,4-Diaminequinazolin-6-yl)-2-nitrobenzamide]: the “S.I. LD50/ED50” value is recorded as not below 5 in data set [1] (24 h) and not below 6.7 in data set [1] (5 days). Moreover, the IC50 in data set [1] (setting [4]) came out at 15 ± 3 µM; in data set [1] (setting [5]) it was 19 ± 2 µM. The figures for the “HFF1 LD50” value in data set [2] (24 h) and in data set [2] (5 days) were >100 (6) µM and >100 (2) µM, respectively. Further, the LC50 in data set [3] (setting [6]) was 95 µM.

On to `Nc1nc(N)c2cc(NC(=O)c3cccc([N+](=O)[O-])c3)ccc2n1` [Compound 3, N-(2,4-Diaminequinazolin-6-yl)-3-nitrobenzamide], for which the “S.I. LD50/ED50” value in data set [1] (24 h) is recorded as not below 42; in data set [1] (5 days), not below 11. The results for the IC50 in data set [1] (setting [4]) and in data set [1] (setting [5]) were 8.9 µM and 2.4 ± 0.4 µM, respectively. The “HFF1 LD50” value is recorded as >100 (6) µM in data set [2] (24 h) and >100 (2) µM in data set [2] (5 days). Also, the LC50 in data set [3] (setting [6]) is 50 µM.

Take `Nc1nc(N)c2cc(NC(=O)c3ccc([N+](=O)[O-])cc3)ccc2n1` [Compound 4, N-(2,4-Diaminequinazolin-6-yl)-4-nitrobenzamide]: the “S.I. LD50/ED50” value in data set [1] (24 h) and in data set [1] (5 days) was not below 10 in each case. For the same molecule, the figures for the IC50 in data set [1] (setting [4]) and in data set [1] (setting [5]) were 10 µM and 10 ± 0.4 µM, respectively. Further, the “HFF1 LD50” value is listed as >100 (6) µM in data set [2] (24 h) and >100 (2) µM in data set [2] (5 days). In addition, the LC50 in data set [3] (setting [6]) was found to be 60 µM.

`Nc1nc(N)c2cc(NCc3ccccc3)ccc2n1` [Compound 5]: the “S.I. LD50/ED50” value in data set [1] (24 h) is given as not below 5. Moreover, the IC50 turned out to be 14 ± 2 µM in data set [1] (setting [4]) and 13 ± 3 µM in data set [1] (setting [5]). The “HFF1 LD50” value in data set [2] (24 h) is >60 (4) µM; in data set [2] (5 days) it was 26 (2) µM. The LC50 in data set [3] (3 h) is more than 150 µM.

`Nc1nc(N)c2cc(NCc3ccccc3[N+](=O)[O-])ccc2n1` [Compound 6]: the “Epi ED50 (initial screening)” value in data set [1] (epimastigote growth, 24 h) was 143 * (2) µM.

Consider `Nc1nc(N)c2cc(NCc3ccc([N+](=O)[O-])cc3)ccc2n1` [Compound 7], for which the “Epi ED50 (initial screening)” value in data set [1] (epimastigote growth, 24 h) is listed as >100 * (2) µM.

Turning to `Nc1nc(N)c2cc(NCc3ccccc3Cl)ccc2n1` [Compound 8], the “S.I. LD50/ED50” value in data set [1] (24 h) was 4. For the same molecule, the results for the IC50 in data set [1] (setting [4]) and in data set [1] (setting [5]) were 6.6 ± 0.5 µM and 2.3 ± 0.5 µM, respectively. The “antiparasitic effect, summary in words” value in data set [1] is “highly toxic for parasites and fibroblasts”. Moreover, the “HFF1 LD50” value in data set [2] (24 h) was 8.6 ± 2 (4) µM; in data set [2] (5 days), 8 (2) µM. Moreover, the LC50 in data set [3] (3 h) was determined as 59 µM.

Turning to `Nc1nc(N)c2cc(NCc3cccc(Cl)c3)ccc2n1` [Compound 9], the “S.I. LD50/ED50” value is recorded as 11 in data set [1] (24 h) and not below 12 in data set [1] (5 days). The IC50 amounted to 8.1 ± 1.8 µM in data set [1] (setting [4]) and 7.6 ± 2.5 µM in data set [1] (setting [5]). The “HFF1 LD50” value is on record as 85 ± 7 (6) µM in data set [2] (24 h) and >100 (2) µM in data set [2] (5 days). Also, in data set [3] (setting [6]), the LC50 was more than 150 µM.

Regarding `Nc1nc(N)c2cc(NCc3ccc(Cl)cc3)ccc2n1` [Compound 10], the “S.I. LD50/ED50” value is 13 in data set [1] (24 h) and not below 7 in data set [1] (5 days). The IC50 in data set [1] (setting [4]) worked out at 14 ± 1.2 µM; in data set [1] (setting [5]) it was 8.9 ± 2 µM. Besides, the “HFF1 LD50” value was 116 ± 13 (6) µM in data set [2] (24 h) and >100 (2) µM in data set [2] (5 days). For the same molecule, the LC50 in data set [3] (setting [6]) was more than 150 µM.

As to `Nc1nc(N)c2cc(NCc3cc(F)ccc3F)ccc2n1` [Compound 11, N^6-(2,5-Difluorobenzyl)quinazoline-2,4,6-triamine], the figures for the “S.I. LD50/ED50” value in data set [1] (24 h) and in data set [1] (5 days) were not below 7 and not below 3, respectively. Besides, the values for the IC50 in data set [1] (setting [4]) and in data set [1] (setting [5]) were 20 ± 2 µM and 9 ± 1.4 µM, respectively. In addition, the entries for the “HFF1 LD50” value in data set [2] (24 h) and in data set [2] (5 days) were >60 (4) µM and >60 (1) µM, respectively. The LC50 in data set [3] (setting [6]) was more than 150 µM.

Turning to `Nc1nc(N)c2cc(NCc3ccccc3OC(F)(F)F)ccc2n1` [Compound 12], the “Epi ED50 (initial screening)” value in data set [1] (epimastigote growth, 24 h) is given as 44 ± 3 (3) µM.

Regarding `Nc1nc(N)c2cc(NCc3cccc(O)c3)ccc2n1` [Compound 13], in data set [1] (epimastigote growth, 24 h), the “Epi ED50 (initial screening)” value is >100 * (2) µM.

Regarding `COc1cc(CNc2ccc3nc(N)nc(N)c3c2)cc(OC)c1OC` [Compound 14, N^6-(3,4,5-Trimethoxybenzyl)quinazoline-2,4,6-triamine], in data set [1] (epimastigote growth, 24 h), the “Epi ED50 (initial screening)” value is given as >100 * (2) µM.

For the molecule `CC1CS(=O)(=O)CCN1/N=C/c1ccc([N+](=O)[O-])o1` (stereo not drawn) [Nfx, (E)-N-(3-methyl-1,1-dioxo-1,4-thiazinan-4-yl)-1-(5-nitrofuran-2-yl) methanimine, reference compound], the IC50 was found to be 11.8 ± 0.1 µM in data set [1] (setting [4]) and 3.8 ± 1.2 µM in data set [1] (setting [5]).
